Laboratory results published in article PMC11589570, “Critical assessment of LC3/GABARAP ligands used for degrader development and ligandability of LC3/GABARAP binding pockets” (Nature Communications, 2024).
Read-outs that look alike come from different tables or passages of the source.

How the values were obtained:
GABARAPL2 = GABARAPL2 (Homo sapiens, UniProt P60520); conditions: GABARAPL2:ligand molar ratio 1:2
[1] = test system: RPE-1 GFP-LC3B-RPF-LC3∆G reporter cell line; test: Autophagy flux assay; format: cell-based; conditions: rebuttal letter
Source text: LC3/GABARAP in vitro, but no attempts are made to replicate the previously reported cellular activity of these compounds. It would be beneficial to know whether these compounds have any effect on autophagy in the authors’ hands, and therefore could act by alternative mechanisms, or whether they […]
Response: We were very concerned that the ligands used for ATTEC development might induce general toxicity in cell lines, as they are based on drugs used in oncology (such as the kinesin inhibitor 10O5) and the isoxazole scaffold often used in the development of multi-targeted kinase inhibitors. However, we have now investigated compounds 1-4 in autophagy flux assays using the RPE-1 GFP-LC3B-RPF-LC3∆G reporter cell line (single clone) as […]
reported in [PMID:37558952].
(RR_Figure 6). The authors of the first manuscript reporting these ligands [PMID: 31666698]
However, due to the potent activity of 8F20 on KIF11, which will have profound effects on cell trafficking and growth, and DCAF11 (AN1, [PMID: 38036533]), we find it unlikely that the effects on autophagy are due to LC3/GABARAP modulation. Due to the lack of target (LC3/GABARAP) binding in vitro and the […]
of this review but have excluded the data in the manuscript.
RR_figure 5: Autophagy flux measurement for 10O5 and AN2. No induction of autophagy or effects (right panels, assessed by Incucyte (Sartorius) life cell imaging) on cell growth was […]
RR_figure 6: Autophagy flux measurement for 8F20 and AN1 show changes in autophagy flux […]
It is not clear how many biological replicates have been performed. For example, the figure legends […]

Sequence of GABARAPL2 (P60520 whole entry): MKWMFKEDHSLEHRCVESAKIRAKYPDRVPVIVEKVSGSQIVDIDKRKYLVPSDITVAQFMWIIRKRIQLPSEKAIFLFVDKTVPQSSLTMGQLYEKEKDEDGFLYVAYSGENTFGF

Molecule O=c1cc(-c2ccccc2)c2c(O)cc(O)cc2o1 [compound 2] has a CSP (GABARAPL2; residue A19) of 0.010 ppm, a CSP (GABARAPL2; residue A23) of 0.008 ppm and a CSP (GABARAPL2; residue A58) of 0.00237 ppm. For the same molecule, the CSP (GABARAPL2; residue A108) was 0.00221 ppm, the CSP (GABARAPL2; residue C15) was 0.005 ppm and the CSP (GABARAPL2; residue D45) was 0.004 ppm. The CSP (GABARAPL2; residue D54) was 0.006 ppm, the CSP (GABARAPL2; residue D81) was 0.00283 ppm and the CSP (GABARAPL2; residue D100) was 0.00367 ppm. For the same molecule, the CSP (GABARAPL2; residue D102) was 0.009 ppm, the CSP (GABARAPL2; residue E12) was 0.00212 ppm and the CSP (GABARAPL2; residue E17) was 0.006 ppm. It also gave a CSP (GABARAPL2; residue E34) of 0.010 ppm, a CSP (GABARAPL2; residue E73) of 0.00212 ppm and a CSP (GABARAPL2; residue E96) of 0.004 ppm. It also gave a CSP (GABARAPL2; residue E112) of 0.002 ppm, a CSP (GABARAPL2; residue F5, estimated) of 0.005 ppm and a CSP (GABARAPL2; residue F60) of 0.005 ppm. It also gave a CSP (GABARAPL2; residue F77) of 0.00281 ppm, a CSP (GABARAPL2; residue F104) of 0.016 ppm and a CSP (GABARAPL2; residue F115) of 0.009 ppm. It also gave a CSP (GABARAPL2; residue G38) of 0.012 ppm, a CSP (GABARAPL2; residue G103) of 0.005 ppm and a CSP (GABARAPL2; residue G111) of 0.008 ppm. For the same molecule, the CSP (GABARAPL2; residue H9) was 0.016 ppm, the CSP (GABARAPL2; residue I21) was 0.005 ppm and the CSP (GABARAPL2; residue I32) was 0.005 ppm. The CSP (GABARAPL2; residue I41) was 0.007 ppm, the CSP (GABARAPL2; residue I44) was 0.002 ppm and the CSP (GABARAPL2; residue I55) was 0.00171 ppm. It also gave a CSP (GABARAPL2; residue I63) of 0.003 ppm, a CSP (GABARAPL2; residue I64) of 0.006 ppm and a CSP (GABARAPL2; residue K2) of 0.005 ppm. It also gave a CSP (GABARAPL2; residue K20) of 0.009 ppm, a CSP (GABARAPL2; residue K24) of 0.005 ppm and a CSP (GABARAPL2; residue K35) of 0.007 ppm. For the same molecule, the CSP (GABARAPL2; residue K46, estimated) was 0.005 ppm, the CSP (GABARAPL2; residue K48) was 0.007 ppm and the CSP (GABARAPL2; residue K66) was 0.00316 ppm. It also gave a CSP (GABARAPL2; residue K74) of 0.00148 ppm, a CSP (GABARAPL2; residue K82, estimated) of 0.005 ppm and a CSP (GABARAPL2; residue K99) of 0.00444 ppm. It also gave a CSP (GABARAPL2; residue L11) of 0.00212 ppm, a CSP (GABARAPL2; residue L50) of 0.031 ppm and a CSP (GABARAPL2; residue L70) of 0.00283 ppm. For the same molecule, the CSP (GABARAPL2; residue L78) was 0.0017 ppm, the CSP (GABARAPL2; residue L94) was 0.007 ppm and the CSP (GABARAPL2; residue L105) was 0.00636 ppm. It also gave a CSP (GABARAPL2; residue M1) of 0.014 ppm, a CSP (GABARAPL2; residue M4, estimated) of 0.005 ppm and a CSP (GABARAPL2; residue M61) of 0.00474 ppm. For the same molecule, the CSP (GABARAPL2; residue M91) was 0.005 ppm, the CSP (GABARAPL2; residue P26, estimated) was 0.005 ppm and the CSP (GABARAPL2; residue P30, estimated) was 0.010 ppm. The CSP (GABARAPL2; residue P52, estimated) was 0.005 ppm, the CSP (GABARAPL2; residue P71, estimated) was 0.005 ppm and the CSP (GABARAPL2; residue P85, estimated) was 0.005 ppm. For the same molecule, the CSP (GABARAPL2; residue Q40) was 0.0017 ppm, the CSP (GABARAPL2; residue Q59) was 0.002 ppm and the CSP (GABARAPL2; residue R14) was 0.0095 ppm. For the same molecule, the CSP (GABARAPL2; residue R28) was 0.00851 ppm, the CSP (GABARAPL2; residue R47, estimated) was 0.005 ppm and the CSP (GABARAPL2; residue R65) was 0.0019 ppm. It also gave a CSP (GABARAPL2; residue R67) of 0.004 ppm, a CSP (GABARAPL2; residue S10) of 0.013 ppm and a CSP (GABARAPL2; residue S18) of 0.002 ppm. It also gave a CSP (GABARAPL2; residue S37) of 0.0065 ppm, a CSP (GABARAPL2; residue S39) of 0.00356 ppm and a CSP (GABARAPL2; residue S53) of 0.005 ppm. It also gave a CSP (GABARAPL2; residue S88) of 0.00122 ppm, a CSP (GABARAPL2; residue S110) of 0.00122 ppm and a CSP (GABARAPL2; residue T83) of 0.00251 ppm. The CSP (GABARAPL2; residue T114) was 0.00122 ppm, the CSP (GABARAPL2; residue V29) was 0.0057 ppm and the CSP (GABARAPL2; residue V31) was 0.025 ppm. It also gave a CSP (GABARAPL2; residue V36) of 0.00316 ppm, a CSP (GABARAPL2; residue V42) of 0.006 ppm and a CSP (GABARAPL2; residue V51) of 0.009 ppm. The CSP (GABARAPL2; residue V80) was 0.008 ppm, the CSP (GABARAPL2; residue V84) was 0.00228 ppm and the CSP (GABARAPL2; residue V107) was 0.006 ppm. The CSP (GABARAPL2; residue W3) was 0.006 ppm, the CSP (GABARAPL2; residue Y49) was 0.033 ppm and the CSP (GABARAPL2; residue Y95) was 0.0022 ppm. The CSP (GABARAPL2; residue Y106) was 0.007 ppm, the CSP (GABARAPL2; residue Y109) was 0.007 ppm and the “autophagy induction (autophagy flux)” value [1] was “did not induce autophagy”. The “effects on cell growth (Incucyte life cell imaging)” value [1] was “No induction of autophagy or effects”.
